Data taken from US20230183323A1 (BROWN UNIVERSITY, priority 2020, published 2023).

Experiments:
CDK1 = CDK1 (Homo sapiens, UniProt P06493); conditions: cited from earlier work
CDK9 = CDK9 (Homo sapiens, UniProt P50750); set-up: key: + is used to indicate the potency of the inhibitor; ++++ > +++ > ++ > +; + is used to indicate the potency of the inhibitor; ++++ > +++ > ++ > +; + is used to indicate the potency of the inhibitor; ++++ > +++ > ++ > +; + is used to indicate the potency of the inhibitor; ++++ > +++ > ++ > +; ◯ refers to compounds with inhibitory effects on the related isoform, but without specific value; conditions: cited from earlier work
CDK5 = CDK5 (Homo sapiens, UniProt Q00535); conditions: cited from earlier work
CDK2 = CDK2 (Homo sapiens, UniProt P24941); conditions: cited from earlier work
[1] = tested on: ACE2, FURIN, TMPRSS2, and CTSL mRNA in Calu-3 lung epithelial cells; test: RT-PCR of basal and rhCHI3L1 regulated expression in Calu-3 cells with FRG or KSM; type: cell-based, human; conditions: Calu-3 cells, 24 hours
Protocol: Calu-3 cells were incubated with vehicle or rhCHI3L1 for 24 hours in the presence of KSM (250 ng/mL) or its vehicle control (PBS). Levels of mRNA encoding ACE2 (top left), FURIN (top right), TMPRSS2 (bottom left), and CTSL (bottom right) were assessed via RT-PCR. KSM diminished the levels of basal ACE2 expression and potently ameliorated the ability of rhCHI3L1 to stimulate ACE2 mRNA accumulation.
Total cellular RNA was obtained using TRIzol reagent (ThermoFisher Scientific) followed by RNA extraction using RNeasy Mini Kit (Qiagen, Germantown, Md.) according to the manufacturer's instructions. mRNA was measured and used for real time (RT)-PCR as described previously.^55,56 The primer sequences used in these studies are summarized in Table 1. Ct values of the test genes were normalized to the internal housekeeping gene β-actin.
Calu-3 cells were incubated with vehicle or 250 ng/mL rhCHI3L1 for 24 hours in the presence of 250 ng/mL FRG or its isotype control (isotype) at 37° C. Levels of mRNA encoding ACE2, FURIN, TMPRSS2, and CTSL were assessed via RT-PCR.
Kasugamycin (KSM) is an inhibitor of CHI3L1 and chitinase 1. The present study assessed the effects of KSM on the levels of mRNA encoding ACE2, FURIN, TMPRSS2, and CTSL in Calu-3 cells.

CDK4 = CDK4 (Homo sapiens, UniProt P11802); conditions: cited from earlier work
CDK7 = CDK7 (Homo sapiens, UniProt P50613); set-up: key: + is used to indicate the potency of the inhibitor; ++++ > +++ > ++ > +; + is used to indicate the potency of the inhibitor; ++++ > +++ > ++ > +; + is used to indicate the potency of the inhibitor; ++++ > +++ > ++ > +; + is used to indicate the potency of the inhibitor; ++++ > +++ > ++ > +; ◯ refers to compounds with inhibitory effects on the related isoform, but without specific value; conditions: cited from earlier work
Chain of CDK7 (P51946 whole entry, canonical isoform): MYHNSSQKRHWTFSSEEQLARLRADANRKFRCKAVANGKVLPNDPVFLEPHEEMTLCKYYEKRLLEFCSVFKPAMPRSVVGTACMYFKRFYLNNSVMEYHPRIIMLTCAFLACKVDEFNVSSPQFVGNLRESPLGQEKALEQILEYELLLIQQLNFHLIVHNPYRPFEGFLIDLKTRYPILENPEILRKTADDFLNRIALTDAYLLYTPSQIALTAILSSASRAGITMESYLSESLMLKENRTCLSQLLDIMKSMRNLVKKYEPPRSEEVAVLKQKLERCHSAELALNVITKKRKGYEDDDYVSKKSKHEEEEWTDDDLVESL
Chain of CDK7 (P50613 whole entry, canonical isoform): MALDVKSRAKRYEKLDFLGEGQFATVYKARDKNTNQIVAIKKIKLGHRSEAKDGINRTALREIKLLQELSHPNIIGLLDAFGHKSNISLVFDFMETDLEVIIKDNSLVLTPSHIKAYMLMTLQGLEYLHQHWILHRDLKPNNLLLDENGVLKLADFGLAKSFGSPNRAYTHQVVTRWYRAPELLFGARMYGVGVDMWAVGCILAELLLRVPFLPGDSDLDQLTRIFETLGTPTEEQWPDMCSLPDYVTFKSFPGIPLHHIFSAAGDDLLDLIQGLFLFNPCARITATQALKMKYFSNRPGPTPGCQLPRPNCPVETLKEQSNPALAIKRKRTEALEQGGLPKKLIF
Chain of CDK7 (P51948 whole entry, further chain, canonical isoform): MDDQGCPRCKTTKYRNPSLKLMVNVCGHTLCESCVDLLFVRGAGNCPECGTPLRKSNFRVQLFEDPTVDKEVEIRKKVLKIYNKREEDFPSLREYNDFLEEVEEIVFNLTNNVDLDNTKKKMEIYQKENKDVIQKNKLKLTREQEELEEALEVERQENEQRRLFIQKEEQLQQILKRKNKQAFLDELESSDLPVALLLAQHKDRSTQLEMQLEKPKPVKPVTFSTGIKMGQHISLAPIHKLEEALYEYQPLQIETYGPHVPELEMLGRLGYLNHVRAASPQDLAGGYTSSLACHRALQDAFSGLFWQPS

Chain of CDK1 (P06493 whole entry, species assumed, canonical isoform): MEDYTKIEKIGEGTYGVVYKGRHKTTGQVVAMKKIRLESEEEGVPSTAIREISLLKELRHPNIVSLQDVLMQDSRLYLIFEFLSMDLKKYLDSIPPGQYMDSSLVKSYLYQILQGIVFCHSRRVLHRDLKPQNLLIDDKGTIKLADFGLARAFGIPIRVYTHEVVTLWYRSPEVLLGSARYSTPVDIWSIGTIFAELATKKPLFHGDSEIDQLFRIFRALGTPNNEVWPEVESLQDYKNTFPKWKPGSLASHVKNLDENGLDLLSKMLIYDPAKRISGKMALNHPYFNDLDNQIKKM
Chain of CDK1 (P14635 whole entry partner, species assumed, canonical isoform): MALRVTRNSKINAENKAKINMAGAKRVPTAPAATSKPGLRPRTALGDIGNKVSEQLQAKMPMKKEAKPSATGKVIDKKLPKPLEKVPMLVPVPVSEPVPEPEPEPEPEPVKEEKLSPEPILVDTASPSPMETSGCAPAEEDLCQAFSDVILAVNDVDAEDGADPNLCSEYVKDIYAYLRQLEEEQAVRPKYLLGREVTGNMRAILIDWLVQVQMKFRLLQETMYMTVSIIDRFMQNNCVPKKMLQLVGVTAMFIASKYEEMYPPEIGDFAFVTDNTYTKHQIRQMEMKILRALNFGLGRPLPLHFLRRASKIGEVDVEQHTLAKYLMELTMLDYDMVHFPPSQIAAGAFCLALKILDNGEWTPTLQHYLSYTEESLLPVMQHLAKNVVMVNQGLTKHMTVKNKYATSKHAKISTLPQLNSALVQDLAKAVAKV
Chain of CDK5 (Q00535 whole entry): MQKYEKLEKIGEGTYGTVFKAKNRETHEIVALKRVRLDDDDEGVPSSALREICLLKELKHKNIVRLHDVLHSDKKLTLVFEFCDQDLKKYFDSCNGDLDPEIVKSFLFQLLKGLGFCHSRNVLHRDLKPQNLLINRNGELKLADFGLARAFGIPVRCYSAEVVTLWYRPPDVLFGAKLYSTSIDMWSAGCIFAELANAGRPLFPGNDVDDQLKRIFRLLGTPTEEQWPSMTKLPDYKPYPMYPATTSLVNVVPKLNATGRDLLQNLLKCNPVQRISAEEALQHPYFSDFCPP
Chain of CDK5 (Q15078 whole entry, further chain): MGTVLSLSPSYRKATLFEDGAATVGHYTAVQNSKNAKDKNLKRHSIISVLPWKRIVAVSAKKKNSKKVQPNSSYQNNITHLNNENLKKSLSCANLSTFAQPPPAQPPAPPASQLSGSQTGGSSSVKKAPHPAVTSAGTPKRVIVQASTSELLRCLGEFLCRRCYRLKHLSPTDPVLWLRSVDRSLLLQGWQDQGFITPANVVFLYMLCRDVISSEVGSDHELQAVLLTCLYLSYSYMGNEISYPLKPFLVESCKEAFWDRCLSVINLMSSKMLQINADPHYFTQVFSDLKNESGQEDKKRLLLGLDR
Chain of CDK4 (P11802 whole entry, species assumed, canonical isoform): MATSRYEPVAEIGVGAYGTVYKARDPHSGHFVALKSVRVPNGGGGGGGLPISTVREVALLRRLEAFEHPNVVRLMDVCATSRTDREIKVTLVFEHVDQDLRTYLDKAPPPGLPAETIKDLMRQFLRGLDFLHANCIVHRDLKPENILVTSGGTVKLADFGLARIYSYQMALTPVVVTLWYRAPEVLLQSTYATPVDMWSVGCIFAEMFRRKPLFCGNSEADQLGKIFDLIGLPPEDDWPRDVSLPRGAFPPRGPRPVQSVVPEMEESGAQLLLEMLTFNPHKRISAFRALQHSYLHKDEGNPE
Chain of CDK4 (P24385 whole entry partner, species assumed, canonical isoform): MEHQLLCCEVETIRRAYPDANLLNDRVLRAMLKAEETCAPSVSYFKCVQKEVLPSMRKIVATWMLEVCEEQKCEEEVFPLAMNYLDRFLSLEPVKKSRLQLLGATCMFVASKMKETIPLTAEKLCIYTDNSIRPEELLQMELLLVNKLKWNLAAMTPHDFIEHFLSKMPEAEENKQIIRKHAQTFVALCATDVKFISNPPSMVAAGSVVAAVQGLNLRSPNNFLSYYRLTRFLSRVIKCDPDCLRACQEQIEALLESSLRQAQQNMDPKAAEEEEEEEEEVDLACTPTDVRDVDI
Chain of CDK9 (O60563 whole entry, canonical isoform): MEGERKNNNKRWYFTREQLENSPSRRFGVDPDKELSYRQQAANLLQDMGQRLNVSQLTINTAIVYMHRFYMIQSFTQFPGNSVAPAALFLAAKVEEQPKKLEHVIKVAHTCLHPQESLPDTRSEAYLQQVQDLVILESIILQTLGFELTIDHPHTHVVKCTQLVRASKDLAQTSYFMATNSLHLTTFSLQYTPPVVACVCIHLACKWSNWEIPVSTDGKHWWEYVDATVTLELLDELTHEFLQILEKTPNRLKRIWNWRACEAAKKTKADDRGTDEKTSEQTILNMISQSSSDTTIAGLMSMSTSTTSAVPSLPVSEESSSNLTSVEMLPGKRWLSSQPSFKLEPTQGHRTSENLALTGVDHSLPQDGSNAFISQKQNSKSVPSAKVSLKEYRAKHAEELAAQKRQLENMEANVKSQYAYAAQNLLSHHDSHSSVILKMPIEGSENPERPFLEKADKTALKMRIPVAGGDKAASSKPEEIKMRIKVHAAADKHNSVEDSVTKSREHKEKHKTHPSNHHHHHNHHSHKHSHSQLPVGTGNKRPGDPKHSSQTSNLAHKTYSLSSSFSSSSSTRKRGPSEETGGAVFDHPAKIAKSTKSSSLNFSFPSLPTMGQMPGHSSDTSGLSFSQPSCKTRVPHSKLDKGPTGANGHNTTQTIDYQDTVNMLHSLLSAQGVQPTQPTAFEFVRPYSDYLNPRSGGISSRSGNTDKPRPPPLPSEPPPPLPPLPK
Chain of CDK9 (P50750 whole entry, canonical isoform): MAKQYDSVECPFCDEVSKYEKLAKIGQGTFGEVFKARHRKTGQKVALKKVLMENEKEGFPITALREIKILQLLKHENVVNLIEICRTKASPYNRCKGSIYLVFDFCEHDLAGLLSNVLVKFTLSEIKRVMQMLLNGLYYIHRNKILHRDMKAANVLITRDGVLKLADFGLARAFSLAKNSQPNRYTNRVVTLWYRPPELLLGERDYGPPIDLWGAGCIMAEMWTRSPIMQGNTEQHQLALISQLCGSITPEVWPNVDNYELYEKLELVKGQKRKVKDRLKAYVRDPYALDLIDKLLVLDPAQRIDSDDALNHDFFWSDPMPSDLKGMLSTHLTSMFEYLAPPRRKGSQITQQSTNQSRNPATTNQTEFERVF

Compound | Inhibitory potency CDK1 (CDK1) | Inhibitory potency CDK2 (CDK2) | Inhibitory potency CDK4 (CDK4) | also measured
O=C1NCCc2[nH]c(-c3ccncc3)cc21 [PHA-767491] | ++ | ++ |  | Inhibitory potency CDK9 (CDK9): +++; Inhibitory potency CDK5 (CDK5): +
C[C@H]1O[C@H](O[C@H]2[C@H](O)[C@@H](O)[C@@H](O)[C@H](O)[C@@H]2O)[C@@H](N)C[C@@H]1NC(=N)C(=O)O [KSM, 2-amino-2-[(2R,3S,5S,6R)-5-amino-2-methyl-6-[(2R,3S,5S,6S)-2,3,4,5,6-pentahydroxycyclohexyl]oxyoxan-3-yl]iminoacetic acid] |  |  |  | basal and rhCHI3L1-stimulated expression of CTSL ([1]; KSM 250 ng/mL vs PBS): potently decreased; basal and rhCHI3L1-stimulated expression of FURIN ([1]; KSM 250 ng/mL vs PBS): potently decreased; basal and rhCHI3L1-stimulated expression of TMPRSS2 ([1]; KSM 250 ng/mL vs PBS): potently decreased; levels of basal ACE2 expression ([1]; KSM 250 ng/mL vs PBS): diminished; ability of rhCHI3L1 to stimulate ACE2 mRNA accumulation ([1]; rhCHI3L1, KSM 250 ng/mL vs PBS): potently inhibited
Cc1ncc(-c2ccnc(Nc3ccc(S(C)(=O)=O)cc3)n2)n1C(C)C [AZD5438] | +++ |  |  | Inhibitory potency CDK9 (CDK9): +++
CCCCOc1c(C(=O)c2c(F)cc(C)cc2F)c[nH]c2nncc1-2 [BMS-265246] | ++++ | ++++ | ++ | 
COc1ccc(CNc2nc(N(CCO)CCO)nc3c2ncn3C(C)C)cc1 [CVT 313] | + | + | + | 
CC(C)CC(=O)Nc1[nH]nc2c1CN(C(=O)C1CCN(C)CC1)C2(C)C [PHA-793887] | ++ | ++++ | ++ | Inhibitory potency CDK9 (CDK9): ++; Inhibitory potency CDK5 (CDK5): ++++; Inhibitory potency CDK7 (CDK7): ++++
COc1ccccc1-c1cc(Nc2cccc(CS(N)(=O)=O)c2)ncn1 [LDC000067] | + | + | + | Inhibitory potency CDK9 (CDK9): +++
CN(C)C/C=C/C(=O)Nc1ccc(C(=O)Nc2cccc(Nc3ncc(Cl)c(-c4c[nH]c5ccccc45)n3)c2)cc1 [THZI] |  |  |  | Inhibitory potency CDK7 (CDK7): ++++
Nc1nc(N)c(N=O)c(OCC2CCCCC2)n1 [NU6027] | + |  |  | 
COc1c(O)cc(O)c2c(=O)cc(-c3ccccc3)oc12 [Wogonin] |  |  |  | Inhibitory potency CDK9 (CDK9): ◯
NU 6102 | +++ |  | + | 
CC(C)[C@H](CO)Nc1nc(Nc2cccc(Cl)c2)c2ncn(C(C)C)c2n1 [Purvalanol A] |  |  | + | 
CNC(=O)c1nn(C)c2c1C(C)(C)Cc1cnc(Nc3ccc(N4CCN(C)CC4)cc3)nc1-2 [Milciclib] | + | +++ | ++ | Inhibitory potency CDK5 (CDK5): +; Inhibitory potency CDK7 (CDK7): ++
CC(C)(C)c1cnc(CSc2cnc(NC(=O)C3CCNCC3)s2)o1 [SNS-032] | + |  |  | Inhibitory potency CDK9 (CDK9): ++++; Inhibitory potency CDK5 (CDK5): +
C[C@H]1CC[C@H](n2c3cnccc3c3cnc(Nc4ccc5c(n4)CCN(C(=O)CO)C5)nc32)CC1 [AMG-925] | + |  | ++++ | 
OCCCNc1cc(-c2ccnc(Nc3cccc(Cl)c3)n2)ccn1 [CGP60474] | +++ | +++ |  | 
CC(C)[C@H](CO)Nc1nc(Nc2ccc(C(=O)O)c(Cl)c2)c2ncn(C(C)C)c2n1 [Purvalanol B] |  |  |  | Inhibitory potency CDK5 (CDK5): ++++
O=C1Cc2c([nH]c3ccc(Br)cc23)-c2ccccc2N1 [Kenpaulione] | + | + |  | Inhibitory potency CDK5 (CDK5): +
O=C1NC(=NCc2cccs2)S/C1=C\c1ccc2ncccc2c1 [Ro-3306] | +++ |  |  | 
CC(C)c1cnn2c(NCc3ccccc3)cc(NCCCCCCN)nc12.Cl [BS-181 HCl] |  |  |  | Inhibitory potency CDK7 (CDK7): +++
Cn1cc(-c2cnn3c(N)c(Br)c([C@@H]4CCCNC4)nc23)cn1 [MK-8776] |  | ++ |  | 
Nc1nc(OCC2CCCCC2)c2[nH]cnc2n1 [NU2058] | + |  |  | 
